Measurements taken from US10335400B2, “Treatment of tauopathies with mGluR5 antagonists” (priority 2014, dated 2019).

How the values were obtained:
Format in all cases: cell-based
[1] = test system: PP2Ac; assay: PP2A regulatory factors (pTyr307-PP2Ac, demethylated Leu309, I1PP2A, I2PP2A) by Western blots in rat brain slices; details: BMAA-treated rat brain slices (1 mM, 2 h)
Method: Male Wistar rats (Charles River Laboratories), 2-3 months old, were anesthetized by i.p. injection with 50 mg/kg Nembutal. The animals were decapitated when deeply anesthetized. The brains were removed immediately and cooled in ice-cold (4° C.) oxygenated artificial cerebrospinal fluid (aCSF) consisting of 126 mM NaCl, 3.5 mM KCl, 1.2 mM NaH2PO4, 1.3 mM MgCl2, 2 mM CaCl2, 11 mM D(+) glucose, and 25 mM NaHCO3 (pH 7.4) for 7-8 min. Each brain then was divided sagittally, and 400-μm-thick coronal slices were made with a Camden Vibraslicer (WP, Inc.). The slices were transferred into a chamber containing the oxygenated aCSF and were incubated at 33° C. for 2 h in the presence or absence of 1 mM, β-N ? methylamino-L-alanine (BMAA) dissolved in 10 mM NaHCO3 (Sigma). The oxygenation of the aCSF was carried out by bubbling the solution with a mixture of 95% O2 and 5% CO2 during the entire procedure. […]
Protein was fractionated by 10% SDS/PAGE, transferred to PVDF membrane, and then blocked with 5% skim milk for 1 h at room temperature. […] The protein bands were detected with the enhanced chemiluminescence reagents (Thermo Scientific). Band intensity was measured by Multi-Gauge V3 software (Fuji Photo Film).

[2] = test system: PP2A; assay: PP2A activity (phosphatase ELISA) and PP2Ac protein level in BMAA-treated mouse mixed primary neuronal cultures; details: BMAA 100 μM to 1 mM, 3-48 h
Method: Mouse hippocampal neuronal cultures were prepared from d 18 embryos as previously described (1). Briefly, C57BL/6 pregnant female mice from Charles River Laboratories were killed by cervical dislocation. All studies were performed in accordance with the recommendations in the Guide for the Care and Use of Laboratory Animals of the National Institutes of Health (2). The protocol was approved by Institutional Animal Care and Use Committee of the New York Institute for Basic Research in Developmental Disabilities. All surgeries were performed under anesthesia, and all efforts were made to minimize suffering. Embryos were removed and placed in cold Hibernate A (BrainBits, LLC), and all the following steps were performed in ice-cold Hibernate A, under a stereoscopic (dissection) microscope placed in a laminar flow hood. Fetal brains were removed carefully, and forebrains were separated. The hippocampus, including the cortex surrounding the area of the hippocampus, was dissected and cut into small pieces using microsurgical scissors. […]
PP2A activity was assayed with homogenate of rat brain slices using the phosphatase ELISA described previously (5). […] Finally 75 μL of 3,3′,5,5′-Tetramethylbenzidine substrate reagent (Sigma) was added, and the colorimetric development was measured using a microtiter plate reader at a wavelength of 650 nm. […]

[3] = test system: PP2A regulated protein kinases; assay: Phosphorylated PP2A regulated protein kinases by Western blots in rat brain slices; details: BMAA-treated rat brain slices (1 mM, 2 h)
Method: Male Wistar rats (Charles River Laboratories), 2-3 months old, were anesthetized by i.p. injection with 50 mg/kg Nembutal. The animals were decapitated when deeply anesthetized. The brains were removed immediately and cooled in ice-cold (4° C.) oxygenated artificial cerebrospinal fluid (aCSF) consisting of 126 mM NaCl, 3.5 mM KCl, 1.2 mM NaH2PO4, 1.3 mM MgCl2, 2 mM CaCl2, 11 mM D(+) glucose, and 25 mM NaHCO3 (pH 7.4) for 7-8 min. Each brain then was divided sagittally, and 400-μm-thick coronal slices were made with a Camden Vibraslicer (WP, Inc.). The slices were transferred into a chamber containing the oxygenated aCSF and were incubated at 33° C. for 2 h in the presence or absence of 1 mM, β-N ? methylamino-L-alanine (BMAA) dissolved in 10 mM NaHCO3 (Sigma). The oxygenation of the aCSF was carried out by bubbling the solution with a mixture of 95% O2 and 5% CO2 during the entire procedure. At the end of incubation, the brain slices were homogenized with homogenizing buffer [50 mM Tris·HCl (pH 7.4), 8.5% (wt/vol) sucrose, 2 mM EDTA, 2 mM EGTA, 10 mM (3-mercaptoethanol, 5 mM benzamidine, 0.5 mM 4-(2-Aminoethyl) benzenesulfonyl fluoride hydrochloride (AEBSF), 4 μg/mL pepstatin A, and 10 μg/mL each of aprotinin and leupepin] at a ratio of 9.0 mL buffer/1.0 g tissue slices. The homogenates were divided into two parts. One part was centrifuged at 16,000×g for 10 min, and the resulting supernatant was used to assay protein phosphatase 2A (PP2A) activity. Into the other half, an equal volume of phosphatase-inhibitor mixture (20 mM 3-glycerophosphate, 2 mM Na3VO4, and 100 mM NaF) was added immediately, and the samples were used for Western blots.
Protein was fractionated by 10% SDS/PAGE, transferred to PVDF membrane, and then blocked with 5% skim milk for 1 h at room temperature. The membrane was probed with anti-IPP2A (5G6, 1:1, 500) (7), anti-I2P2A (10E7, 1:1, 600) (7), anti-tau ˜92e; 1:5,000) (8), anti-tau (R134d; 1:5 000) (9), anti-tau pSer^262/^356 (12E8; 1:500) (10, anti-tau pSer^199, anti-tau pThr^205, anti-tau pThr^212, and pSer^396 (1:1,000) (Biosource), anti-GAPDH (1:2,000) (Santa Cruz Biotechnology), anti-PP2Ac (1:10 000) (BD Transduction Lab), anti pY^307-PP2A and anti-DML^309-PP2A (1:1,000) (Millipore), anti-GSK-3(α/β), anti-pS^9-GSK-3 β, anti-ERK1/2, anti-pT^202/Y^204-ERK1/2, anti-MEK1/2, anti-p9^17/221-MEK1/2, anti-CAMKII, anti-pT^286-CAMKII, anti-p70 S6 kinase, anti-pT^389-p70 S6 kinase, anti-SAPK/JNK, and anti-pT^183/Y^185-SAPK/JNK (1:1,000) (Cell Signaling Technology). The membrane then was incubated with HRP-conjugated secondary antibody (Jackson ImmunoResearch). The protein bands were detected with the enhanced chemiluminescence reagents (Thermo Scientific). Band intensity was measured by Multi-Gauge V3 software (Fuji Photo Film).

SMILES: CNC[C@H](N)C(=O)O [BMAA, β-N-methylamino-L-alanine]
- increase in phosphorylation of PP2Ac at Tyr307 [1]: 3.7 fold
- PP2A activity [2]: significantly decreased
- level of phosphorylated GSK-3β [3]: no significant changes
- level of phosphorylated JNK [3]: no significant changes
- level of phosphorylated p70 S6 kinase [3]: no significant changes
- level of phosphorylated/activated CaMKII [3]: increased noticeably
- level of phosphorylated/activated ERK1/2 [3]: increased noticeably
- level of phosphorylated/activated MEK1/2 [3]: increased noticeably
